This passage reports melting point results from a melting point compilation (Tetko et al.).

Broadly, the melting point is the temperature of the solid-liquid transition.

The structures appear in SMILES notation.

The compound `CCOC(=O)C(C#N)=C(N)c1cc2ccccc2oc1=O` returned a melting point of 247 to 249 °C. The result for `CC(C=CC=C(C)C=CC1=C(C)CC(O)CC1(C)C)=CC=CC=C(C)C=CC=C(C)C=CC1C(C)=CC(O)CC1(C)C` (stereo unspecified) reads 196 °C; that for `CCCCc1c(C)nc(N(C)C)nc1O`, 102 °C; that for `O=C(Cl)c1csc(-c2cccc(Cl)c2)n1`, 85 to 87 °C. The result for `COc1ccccc1-c1nnc2n1NC(c1ccc([N+](=O)[O-])cc1)S2` (stereo unspecified) reads 196 °C. The result for `CCc1nc(N)nc(Cl)c1C` reads 138 to 140 °C. `Nc1ncc(C(F)(F)F)cc1Br` yielded a melting point of 100 °C. `OCC(F)(F)C(F)(F)C(F)(F)C(F)(F)C(F)(F)C(F)(F)C(F)(F)C(F)F` yielded a melting point of 58 to 60 °C. Next, `CC12CCC(C(C(=O)O)C1=O)C2(C)C` (stereo unspecified): 128 °C; `CC(=O)OCC1OC=CC(OC(C)=O)C1OC(C)=O` (stereo unspecified): 54 °C; `COC(=O)c1ccc(OC)c(S(=O)(=O)Cl)c1`: 126 to 128 °C.

`COC(=O)C1=C(C)NC(=O)NC1c1cccc(OC)c1O` (stereo unspecified) registered a melting point of 208 °C. For the compound `CN(C)CCCNc1c2ccccc2nc2cccc([N+](=O)[O-])c12`, the melting point was determined as 134 °C. In turn, `Cc1ncccc1N` showed a melting point of 117 °C. Next, `COc1cc(N=C=O)cc(OC)c1`: 34 to 35.5 °C. Next, `O=S(=O)(Cl)c1sc(-c2ccccc2)nc1-c1ccccc1`: 173 to 174 °C; `O=C(O)CNC(=O)c1ccccc1`: 222 °C; `CC(C)(C)c1cc(S)cc(C(C)(C)C)c1O`: 76 °C. Next, `CCCCOc1ccc(N)cc1[N+](=O)[O-]`: 60 to 64 °C; `CC12CCC3C(CCC4CC(C[N+](=O)[O-])=CCC43C)C1CCC2O` (stereo unspecified): 129 °C. In turn, `O=C(Nc1ccccc1)C(=O)Nc1ccccc1` had a melting point of 254 °C. Compound `O=C(c1ccc(Cl)cc1)c1noc(-c2cccc3ccccc23)c1S(=O)(=O)c1ccccc1` showed a melting point of 150 °C. In the case of `Nc1cc(N)cc(C(F)(F)F)c1`, the melting point was 88 to 89 °C. The result for `COc1cccc(OC)c1Br` reads 93 °C. Next, `CNc1ccc(N)c2c1C(=O)c1ccccc1C2=O`: 193 °C; `CCCC(C)(CO)CO`: 62.5 °C; `N=CN`: 81 °C. For `OC1(Cc2ccccc2)CCNCC1`, the melting point was 80 to 85 °C.

`CCN(CC)CCOC(=O)C(O)(c1ccccc1)c1ccccc1` showed a melting point of 51 °C. As to `O=C(CC(=O)C(F)F)c1ccccc1`, the melting point lay within 37 to 45 °C. Next, `Cc1ccc(N/N=C(/C#N)c2nc(-c3ccc(Cl)cc3)cs2)cc1`: 208 °C; `C=C1/C(=N/Nc2cc(Cl)c(Cl)cc2Cl)C(=O)N(C)C(=O)N1C`: 242 °C. The compound `NC(=O)C=CC(F)(F)F` displayed a melting point of 147 to 150 °C. The result for `Cc1cc(C(F)(F)F)cc(NN)n1` reads 79 to 81 °C. For the compound `O=C(O)c1ccccc1Oc1ccccc1`, the melting point is 113 °C. Regarding `O=Cc1ccccc1OCCN1CCOCC1`, the melting point is 43 to 45 °C.

On to `Nc1cc(-c2cccs2)n[nH]1`, for which the melting point worked out at 101 °C. In turn, `CNC(=O)C(F)(F)F` displayed a melting point of 51 °C. On to `CSc1nc2nc(C)cc(C)c2c(=O)[nH]1`, for which the melting point lay in the range of 242 to 244 °C.

For `Cc1cc2oc(-c3ccccc3)cc(=O)c2cc1Cl`, the melting point lay within 174 to 178 °C.

As for `C=CCC1=C(C)C(OC(=O)C2C(C=C(C)C)C2(C)C)CC1=O` (stereo unspecified), the melting point was found to be 4 °C. The result for `Nc1ccc(Nc2ccccc2)cc1` reads 74 °C; that for `N#CCc1c[nH]c2ccccc12`, 36 °C. Regarding `CC(Oc1ccc(O)cc1)C(=O)O` (stereo unspecified), the melting point was 143 to 147 °C. In turn, `Cc1cccc(N/N=C(\C#N)c2nc(-c3ccc(Cl)cc3)cs2)c1C` gave a melting point of 196 °C. Next, `CNCC(O)c1ccc(O)c(O)c1` (stereo unspecified): 218 °C; `Nc1nc2cc3nc(N)c(-c4ccccc4)cc3cc2cc1-c1ccccc1`: 301 °C.

In the case of `COc1cccc(OC)c1C(=O)O`, the melting point was 187 to 190 °C. Next, `O=C1Cc2cc3c(cc21)CC3=O`: 237 °C.

As for `Oc1ccc(CCc2nnc(S)n2-c2ccc(F)cc2)cc1`, the melting point was in the range of 204 to 205 °C. The result for `Cc1c(N/N=C(/C(=O)c2ccc([N+](=O)[O-])cc2)S(=O)(=O)c2ccccc2)c(=O)n(-c2ccccc2)n1C` reads 135 °C; that for `C=C(C)CCCCCCC`, -64 °C. Next, `ClCc1csc2ccc(Br)cc12`: 106 to 108 °C; `CCOC(=O)c1sc(-c2ccc(C(F)(F)F)cc2)nc1C`: 87 to 89 °C; `CC1=C2C3OC(=O)C(C)C3C(O)CC2(C)C=CC1=O` (stereo unspecified): 203 °C.

Regarding `CCC1COC(Cn2cncn2)(c2ccc(Cl)cc2Cl)O1` (stereo unspecified), the melting point was found to be 84 °C.

The compound `COc1cc(CC#N)ccc1O` registered a melting point of 56.5 °C. Next, `N#CCCCCCN`: -31.4 °C.

Regarding `COC(=O)c1sccc1Oc1ccc(C(F)(F)F)cc1[N+](=O)[O-]`, the melting point was in the range of 112 to 113 °C. The result for `COc1ccc(SSc2ccc(OC)cc2)cc1` reads 40 to 42 °C; that for `CCOc1ccc(N)c([N+](=O)[O-])c1`, 110 to 114 °C. As for `CC(=O)c1ccc(N=C=S)cc1`, the melting point was in the range of 82 to 85 °C. For `NS(=O)(=O)C=Cc1ccccc1`, the melting point lay within 138 to 140 °C. For the compound `O=S(=O)(Cl)c1ccc(-c2ccc(Cl)c(Cl)c2)cc1`, the melting point lay within 105 to 106 °C.

The compound `O=C(c1ccccc1)c1nn(-c2ccccc2)c(-c2ccc([N+](=O)[O-])cc2)c1S(=O)(=O)c1ccccc1` came in with a melting point of 116 °C. Compound `Cc1cc(=O)oc2cc(OP(=O)(O)O)ccc12` yielded a melting point of 210 °C. Next, `COc1ccc(C(=O)O)cc1OC1CCCC1`: 164 to 166 °C; `COc1ccc(C=O)c(C)c1C`: 53 °C. In the case of `COc1cccc(NC(N)=S)c1`, the melting point was 160 °C. Next, `CCOC(=O)C(=CN)C(=O)OCC`: 63 °C. Next, `Nc1cccc(F)c1C(=O)O`: 170 to 172 °C; `N=c1sc(C(=O)c2cccs2)nn1-c1cccc(C(F)(F)F)c1`: 185 °C; `Clc1cc(Cl)c2c(oc3c(Cl)cccc32)c1Cl`: 177 °C. The result for `NNC(=O)OCc1ccccc1` reads 68 °C. Regarding `CNc1c(F)c(F)c(-c2c(F)c(F)c(F)c(F)c2F)c(F)c1F`, the melting point was found to be 72 °C. In turn, `Cc1c(C)c(C)c(C(=O)O)c(C)c1C` showed a melting point of 210 °C. The result for `Cc1c(F)ccc(C#N)c1F` reads 44 °C; that for `Nc1ccc(F)cc1O`, 138 °C.

Turning to `O=P(N1CCOCC1)(N1CCOCC1)N1CCOCC1`, the melting point was found to be 190 °C.

With `O=C(O)C(Br)c1ccccc1Cl` (stereo unspecified), the melting point stood at 107 °C. Turning to `C#CCCCCN1C(=O)c2ccccc2C1=O`, the melting point turned out to be 70 °C. For `N#CC(C#N)=Cc1ccc(O)cc1`, the melting point stood at 189 °C. `CCCCCCCCCCCCCCCC(C)=O` returned a melting point of 48 °C. The result for `NNC(=O)c1cccc(OCc2ccccc2)c1` reads 113 to 115 °C. Next, `Cc1cc(C)c2c(=O)n3ccccc3cc2c1`: 114 °C; `CC(=O)OCC(=O)C1CCC2C3CCC4CC(O)CCC4(C)C3C(=O)CC12C` (stereo unspecified): 176 °C; `CCOc1ccc(C(=S)N2CCOCC2)cc1OC`: 119 °C. The result for `CCCCOc1cc(C(N)=O)ccc1OC` reads 150 to 152 °C; that for `CC(=O)Nc1ccc(C#N)cc1C(F)(F)F`, 169 to 171 °C. As to `Nc1ccc(-c2ccc(NNc3ccccc3)cc2)cc1`, the melting point worked out at 140 °C.

Regarding `CCOC(=O)C1=C(C)NC(C)=C(C(=O)OCC)C1C`, the melting point is 132 to 139 °C. Next, `CCCCOCCOP(=O)(OCCOCCCC)OCCOCCCC`: -70 °C; `ClCc1cc(Cl)cc2c1OCOC2`: 101 °C; `NS(=O)(=O)c1cc(Cl)c(Cl)c(S(N)(=O)=O)c1`: 229 °C. With `COc1cc(C)c(C=O)cc1C`, the melting point lay within 31 to 35 °C. As for `COc1ccc(C(=NCc2ccccc2)c2ccc(OC)cc2)cc1`, the melting point came to 90 °C. For the compound `CCOC(=O)C1=NN(c2ccc(Cl)cc2Cl)C(=O)C1C(Cl)C1(Cl)C(=O)N(c2ccc(Cl)cc2Cl)N=C1C(=O)OCC` (stereo unspecified), the melting point worked out at 99 °C. The result for `NNc1cnn(-c2ccccc2)c(=O)c1Cl` reads 170 °C; that for `O=C(Nc1ccc(C#Cc2ccc(NC(=O)c3ccccc3)cc2)cc1)c1ccccc1`, 332 °C; that for `CCCOc1ccc(C#N)cc1`, 41 °C. In turn, `CSc1nsc(SC)c1C(N)=O` showed a melting point of 214 to 216 °C.

Compound `O=[N+]([O-])c1ccc(N2CCCNCC2)nc1` came in with a melting point of 111 to 112 °C.

Compound `Cc1nccn1C` showed a melting point of 37 to 39 °C. `O=CC(Cl)=Cc1ccccc1` showed a melting point of 20 to 22 °C. Next, `CC(C)(C)OC(=O)NC(Cc1ccncc1)C(=O)O` (stereo unspecified): 225 to 229 °C; `COc1cc2c(cc1OC)C(C)=NCC2`: 103 to 106 °C; `Cc1c(NC(=O)C(C)N(C)C)c(=O)n(-c2ccccc2)n1C` (stereo unspecified): 181 °C. The result for `CCn1c(C)nc([N+](=O)[O-])c1I` reads 210 to 212 °C; that for `Brc1cccc2ncccc12`, 46 °C; that for `O/N=C1\C(c2ccccc2)=Nc2ccccc21`, 260 °C. Next, `Cc1cc(N)ccc1I`: 50 to 55 °C.
